In ChEMBL document CHEMBL4266023, “NMR-Based Investigation of Hydrogen Bonding in a Dihydroanthracen-1(4 H)one from Rubia philippinensis and Its Soluble Epoxide Hydrolase Inhibitory Potential” (J Nat Prod, 2018):

Target: T1, Bifunctional epoxide hydrolase 2 (Homo sapiens, UniProt P34913)
T1 sequence (P34913 whole entry): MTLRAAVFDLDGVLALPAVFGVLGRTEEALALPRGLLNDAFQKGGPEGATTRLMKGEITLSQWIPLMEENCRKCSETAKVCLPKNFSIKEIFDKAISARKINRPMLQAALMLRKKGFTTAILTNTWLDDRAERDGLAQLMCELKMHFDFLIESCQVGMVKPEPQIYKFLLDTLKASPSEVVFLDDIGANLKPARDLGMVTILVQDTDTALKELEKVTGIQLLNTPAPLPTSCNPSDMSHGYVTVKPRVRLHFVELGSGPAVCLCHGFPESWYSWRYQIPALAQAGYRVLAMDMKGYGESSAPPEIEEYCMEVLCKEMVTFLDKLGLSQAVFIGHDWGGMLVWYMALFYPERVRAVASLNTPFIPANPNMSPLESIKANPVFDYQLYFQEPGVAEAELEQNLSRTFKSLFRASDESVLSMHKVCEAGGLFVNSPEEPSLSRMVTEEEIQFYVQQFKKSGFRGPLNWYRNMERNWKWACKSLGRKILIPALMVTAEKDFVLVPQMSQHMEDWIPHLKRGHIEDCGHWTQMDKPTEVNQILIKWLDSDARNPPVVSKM
Assay: Inhibition of soluble epoxide hydrolase (unknown origin) using NEPC as substrate after 1 hr by fluorescence assay

Compound	IC50 [nM]
CC1=CC[C@@H]2C(=C(O)c3ccccc3[C@@H]2O)C1=O	1100
Cc1ccc2c(O[C@@H]3O[C@H](CO)[C@@H](O)[C@H](O)[C@H]3O)c3ccccc3c(O[C@@H]3O[C@H](CO)[C@@H](O)[C@H](O)[C@H]3O)c2c1	300
